Experimental data reported in patent US20060252798A1, “Metal ion chelators and therapeutic use thereof” (priority 2003, published 2006).
Like-named read-outs stand apart in the source and are kept apart here.

Assays:
NCI H2452 mesothelioma = assay: MTT cellular proliferation assay, NCI H2452; format: cell-based; conditions: 72 h, 3 experiments
Description: (§1) The final concentration of the compounds was 0.39-50 μM. […] […] After this incubation, 0.01 mL of MTT was added to each well and the plates incubated for 2 h at 37° C. The cells were then solubilised by adding 0.1 mL of 10% SDS-50% isobutanol in 0.01 M HCl and the plates then read at 570 nm on a scanning multiwell spectrophotometer (Titertek Multiscan; Beckman Instruments Inc, California). MTT colour formation was directly proportional to the number of viable cells.
(§2) At the end of the incubation period, cell density was determined by the MTT assay (described above).

SK-Mel-28 melanoma cells = assay: MTT cellular proliferation assay, SK-Mel-28; format: cell-based, human
M109 carcinoma cells [1] = assay: 59Fe uptake from 59Fe-Tf by M109 cells; format: cell-based, mouse
Description: (§3) The ability of the compound Dp44mT to inhibit the growth of M109 lung carcinoma cells in mice was assessed. Studies were performed using M109 carcinoma cells in culture to determine the effect of Dp44mT on mobilising ^59Fe from these cells (FIG. 11C) and inhibiting ^59Fe uptake from ^59Fe-Tf (FIG. 11D). As internal controls, cells were incubated with DFO and 311. The effect of compound concentration on increasing ^59Fe mobilisation from M109 cells was examined by labelling cells with ^59Fe-Tf (0.75 μM) for 3 h at 37° C. followed by washing and reincubation with the respective compounds (0.2-25 μM) for 3 h at 37° C. (FIG. 11C). […] In contrast, 311 increased cellular ^59Fe release from 8±1% (control medium) to […] at 5 μM (FIG. 11C). For Dp44mT ^59Fe release plateaued at 2 μM, resulting in the efflux of 48±2% of ^59Fe (FIG. 11C).
At 1 μM, 311 reduced ^59Fe uptake to 40±4% of the control. […] Dp44mT had similar activity to 311 up to a concentration of 5 μM, where it reduced ^59Fe uptake to 30±1% of the control (FIG. 11D).

M109 carcinoma cells [2] = assay: 59Fe mobilisation from prelabelled M109 cells; format: cell-based, mouse; conditions: 3 h, control medium 8±1%
Description: as §3

[3] = system: MCF-7 breast cancer cells; assay: MTT cellular proliferation assay, MCF-7; format: cell-based, human
HEP G2 Hepatoma = assay: MTT cellular proliferation assay, HEP G2; format: cell-based; conditions: 72 h, 1 experiment
Description: as §1, §2

MRC-5 fibroblasts = assay: MTT cellular proliferation assay, MRC-5 fibroblasts; format: cell-based, human; conditions: Table 3, normal cells, 72 h, MTT, read-out: IC50 MRC-5 fibroblasts
Description: as §1
The MRC-5 cell type is a normal human lung fibroblast cell strain that is mortal and senesces after a number of passages in vitro. The SK-N-MC neuroepithelioma cell type is immortal.
Dp2mT served as a negative control.

IMR-32 Neuroblastoma = assay: MTT cellular proliferation assay, IMR-32; format: cell-based; conditions: 72 h, 1 experiment
Description: as §1, §2

DU 145 prostate cancer = assay: MTT cellular proliferation assay, DU 145; format: cell-based; conditions: 72 h, 2 experiments
Description: as §1, §2

[4] = system: SK-N-MC neuroepithelioma cells; assay: MTT cellular proliferation assay, SK-N-MC; format: cell-based, human
H69AR lung cancer = assay: MTT cellular proliferation assay, H69AR; format: cell-based; conditions: 0-50 μM, 72 h, 1 experiment
Description: as §1, §2

Ndrg1 = Ndrg1 expression in MCF-7 cells (Western blotting); format: cell-based, human; conditions: 25 μM, 24 h, MCF-7 cells (FIG. 16)
Description: FIG. 16. […] The expression of Ndrg1 and β-actin protein levels were assessed by Western blotting.
MCF-7 cells were incubated for 24 h with a range of metal ion chelators. […] Dp2mT was used as a negative control, […]

[5] = system: SK-N-MC neuroepithelioma cells; assay: 59Fe mobilization from prelabelled SK-N-MC neuroepithelioma cells; format: cell-based, human; conditions: chelators 25 μM, 3 h at 37° C.; media alone released 5% (FIG. 11A)
Description: The effect of chelators on ^59Fe release from prelabelled cells was studied using standard procedures.^18 Cells were prelabelled with ^59Fe-transferrin (0.75 μM) for 3 h at 37° C. […] The overlying medium was then removed and placed into γ-counting tubes. The cells were removed from the petri dishes in 1 ml of BSS using a plastic spatula and transferred to a separate set of γ-counting tubes.
The ability of the compounds to mobilise ^59Fe from SK-N-MC neuroepithelioma cells was assessed after a 3 h labelling period with ^59Fe-Tf (0.75 μM) at 37° C. […]
DFO and 311 were used as internal standards.

M109 lung carcinoma = assay: In situ TUNEL assay of tumour samples from treated mice; format: in vivo, mouse; conditions: 0.4 mg/kg, compared to vehicle-treated controls (FIG. 12B)

`CC(=O)N(O)CCCCCNC(=O)CCC(=O)N(O)CCCCCNC(=O)CCC(=O)N(O)CCCCCN` [DFO, desferrioxamine] was tested, and the IC50 (NCI H2452 mesothelioma; Homo sapiens, NCI-H2452, 0-50 μM) was 32.3 µM, the IC50 (SK-Mel-28 melanoma cells; Homo sapiens, SK-MEL-28, 72 h, Table 3, mean ± SD) was 15 ± 7 µM and the “inhibition of 59Fe uptake” value (M109 carcinoma cells [1]; 0.2-25 μM (FIG. 11D)) was “little effect”. For the same compound, the “59Fe released from cells” value (M109 carcinoma cells [2]; 25 μM) was 12±1%, the IC50 ([3]; Homo sapiens, MCF7, 72 h, Table 3, 72 h, MTT, mean ± SD, read-out: IC50 MCF-7 breast cancer) was 14 ± 9 µM and the IC50 ([3]; Homo sapiens, MCF7, values given in Example 8 text, read-out: IC50, anti-proliferative activity in MCF-7 cells) was 20 µM. For the same compound, the IC50 (HEP G2 Hepatoma; Homo sapiens, HepG2, 0-50 μM) was 18.7 µM, the IC50 (MRC-5 fibroblasts; Homo sapiens, MRC5) was > 25 µM and the IC50 (IMR-32 Neuroblastoma; Homo sapiens, IMR-32, 0-50 μM) was 9.38 µM. The IC50 (DU 145 prostate cancer; Homo sapiens, DU-145, 0-50 μM) was 15.8 µM, the IC50 ([4]; Homo sapiens, SK-N-MC, 72 h, Table 3, 0-25 μM, 72 h, MTT, mean ± SD, read-out: IC50 SK-N-MC neuroepithelioma) was 5 µM and the IC50 ([4]; Homo sapiens, SK-N-MC, 90 h, Table 2, MTT assay, 90 h incubation, Mean ± SD, 4 experiments, read-out: IC50 Values of Chelators) was > 50 µM. The IC50 (H69AR lung cancer; Homo sapiens, H69AR) was > 50 µM, the “up-regulation of Ndrg1” value (Ndrg1) was “no effect” and the “efflux/mobilisation of total cellular 59Fe” value [5] was 11%.
For `CN(C)C(=S)NN=C(c1ccccn1)c1ccccn1` [Dp44mT, di-2-pyridylketone 4,4-dimethyl-3-thiosemicarbazone], the IC50 (NCI H2452 mesothelioma; 0-50 μM) was 0.01 µM, the “apoptotic cell death in tumour samples” value (M109 lung carcinoma) was “increased apoptotic cell death” and the IC50 (SK-Mel-28 melanoma cells; Table 3, 72 h, mean ± SD) was 0.06 ± 0.03 µM. For the same compound, the 59Fe uptake (M109 carcinoma cells [1]; 5 μM) was 30±1 % of the control, the “efflux of 59Fe (plateau)” value (M109 carcinoma cells [2]; 2 μM) was 48±2% and the IC50 ([3]; Table 3, 72 h, MTT, mean ± SD, read-out: IC50 MCF-7 breast cancer) was 0.06 ± 0.01 µM. The IC50 ([3]; values given in Example 8, read-out: IC50, anti-proliferative activity in MCF-7 cells) was 0.1 µM, the IC50 (HEP G2 Hepatoma; 0-50 μM) was 1.36 µM and the IC50 (MRC-5 fibroblasts) was > 25 µM. For the same compound, the IC50 (IMR-32 Neuroblastoma; 0-50 μM) was 0.01 µM, the IC50 (DU 145 prostate cancer; 0-50 μM) was 0.06 µM and the IC50 ([4]; Table 3, 0-25 μM, 72 h, MTT, mean ± SD, read-out: IC50 SK-N-MC neuroepithelioma) was 0.03 ± 0.01 µM. For the same compound, the IC50 (H69AR lung cancer) was 0.05 µM, the “up-regulation of Ndrg1” value (Ndrg1) was “markedly increased” and the “efflux/mobilisation of total cellular 59Fe” value [5] was 47%.
